# Measurements published in patent publication US20100016232A1, “Treatment Of Inflammatory Diseases With Mammal Beta Defensins” (Novozymes A/S, priority 2008, published 2010).
# Marks after values point to notes of the source that are not given here. Where no end group is shown, it is not given here.
# Experiments:
# [1] = tested on: TNF production from human peripheral blood mononuclear cells (PBMC); assay: TNF production from human PBMC, Cytometric Bead Array; assay type: cell-based
# Description: Peripheral blood was drawn from healthy volunteers (with approval from the relevant ethical committee in Denmark). Heparinized blood was diluted 1/1 v/v with RPMI and were subjected to Ficoll density centrifugation within 2 h of drawing. Plasma was collected from the top from individual donors and was kept on ice until it was used at 2% in the culture medium (autologous culture medium). Isolated PBMC were resuspended in autologous culture medium and seeded in 96-well culture plates with 255.000 cells per well in a total of 200 μl. […] The concentrations used for stimulation were optimized on 3 different donors in initial experiments, for LPS two different concentrations were used to be sure to be on a cytokine level that is possible to modulate. In some experiments PBMC were treated with Dexamethason and Indomethacin alone and together with LPS or LTA as a control on downregulation of inflammatory cytokines. The supernatants were collected after incubation at 37° C. for 24 hours, and stored at −80° C. until cytokine measurement. Viability was measured by Alamar Blue (Biosource, DALL 1100) in all experiments and in some cases also by MTS (Promega) according to manufacturer's instruction and was in some experiments also judged by counting of the cells by a Nucleocounter.
# Cytokine production in supernatants was measured by flow cytometry with a human inflammation cytometric bead array (CBA) according to manufacturer's instructions (BD) on a FACSarray flow cytometer. The following cytokines were measured: IL-8, IL-1β, IL-10, TNF, IL-12 p70, IL-6. In some experiments, cytokines were measured by ELISA kits from R&D systems (IL-10, TNF-α, IL-1β) according to the manufacturer' instruction.
# [2] = tested on: collagen-induced arthritis (CIA) in the mouse; assay: Collagen-induced rheumatoid arthritis model, clinical arthritis score; assay type: in vivo; parameters: key: each paw scored 0-4 by ascending severity; total summed over paws
# Description: All animals were subjected on Day 0 of the study (study commencement) to an intradermal injection into the tail of 0.1 ml Type II Collagen/CFA emulsion (200 μg collagen per mouse) under light Isoflurane anesthesia, using a plastic syringe. The location of injection was at an approximate caudal distance of about 1 cm from the base of the tail. A collagen challenge (200 μg/mouse) was presented to the animals by IP injection of collagen and PBS on Day 21.
# Treatments were commenced on day 14 of the study and continued once daily throughout. All surviving mice were terminated on study day 42.
# Mice were examined for signs of arthritogenic responses in peripheral joints on study day 0, 14, 21 and thereafter five times weekly until termination of the study. Arthritis reactions were reported for each paw according to a 0-4 scale in ascending order of severity as shown below:
# In accordance with Home Office regulations mice with a total clinical score of equal to or greater than 12 were culled due to arthritis severity. The clinical score of these mice at termination was carried forward in the analysis for the remainder of the study in order that the data was not artificially skewed by the removal of high scoring mice.
# [3] = LPS 0.6 ng/ml, test compound 1 μg/ml, Table 16
# [4] = LPS 0.6 ng/ml, test compound 10 μg/ml, Table 16
# [5] = LPS 0.6 ng/ml, test compound 40 μg/ml, Table 16
# [6] = LPS 20 ng/ml, test compound 1 μg/ml, Table 16
# [7] = LPS 20 ng/ml, test compound 10 μg/ml, Table 16
# [8] = LPS 20 ng/ml, test compound 40 μg/ml, Table 16
substance,measurement,setting,value
"hBD2: human beta defensin 2, SEQ ID NO:2; produced recombinantly in E. coli (Example 1); hBD2 of Tables 16-18 was prepared by chemical synthesis (GIGDPVTCLKSGAICHPVFCPRRYKQIGTCGLPGTKCCKKP; ends and bridges not checked; cysteine pairing not given here; listed as Homo sapiens)",TNF,"[1]; LPS 0.6 ng/ml, hBD2 1 μg/ml, Table 1",944.8 pg/mL
same,TNF,"[1]; LPS 0.6 ng/ml, hBD2 1 μg/ml, Table 11",170 pg/mL
same,TNF,"[1]; LPS 0.6 ng/ml, hBD2 10 μg/ml, Table 1",1076.4 pg/mL
same,TNF,"[1]; LPS 0.6 ng/ml, hBD2 10 μg/ml, Table 11",200 pg/mL
same,TNF,"[1]; LPS 0.6 ng/ml, hBD2 100 μg/ml, Table 1",634.2 pg/mL
same,TNF,"[1]; LPS 0.6 ng/ml, hBD2 100 μg/ml, Table 11",0 pg/mL
same,TNF,"[1]; LPS 0.6 ng/ml, hBD2 1000 μg/ml, Table 11",3 pg/mL
same,TNF,[1]; [3],242 pg/mL
same,TNF % of control,[1]; [3],33%
same,TNF,[1]; [4],304 pg/mL
same,TNF % of control,[1]; [4],42%
same,TNF,[1]; [5],176 pg/mL
same,TNF % of control,[1]; [5],24%
same,TNF,"[1]; LPS 20 ng/ml, hBD2 1 μg/ml, Table 1",1526.9 pg/mL
same,TNF,"[1]; LPS 20 ng/ml, hBD2 1 μg/ml, Table 11",6240 pg/mL
same,TNF,"[1]; LPS 20 ng/ml, hBD2 10 μg/ml, Table 1",1306.6 pg/mL
same,TNF,"[1]; LPS 20 ng/ml, hBD2 10 μg/ml, Table 11",350 pg/mL
same,TNF,"[1]; LPS 20 ng/ml, hBD2 100 μg/ml, Table 1",1733.9 pg/mL
same,TNF,"[1]; LPS 20 ng/ml, hBD2 100 μg/ml, Table 11",38 pg/mL
same,TNF,"[1]; LPS 20 ng/ml, hBD2 1000 μg/ml, Table 11",0 pg/mL
same,TNF,[1]; [6],411 pg/mL
same,TNF % of control,[1]; [6],19%
same,TNF,[1]; [7],132 pg/mL
same,TNF % of control,[1]; [7],6%
same,TNF,[1]; [8],52 pg/mL
same,TNF % of control,[1]; [8],2%
same,TNF,"[1]; LPS 20 ng/ml, treatment 1 μg/ml, Table 21",633 pg/mL
same,TNF,"[1]; LPS 20 ng/ml, treatment 10 μg/ml, Table 21",359 pg/mL
same,TNF,"[1]; LPS 20 ng/ml, treatment 100 μg/ml, Table 21",342 pg/mL
same,TNF,"[1]; LTA 1.25 μg/ml, hBD2 1 μg/ml, Table 1",711.5 pg/mL
same,TNF,"[1]; LTA 1.25 μg/ml, hBD2 1 μg/ml, Table 11",3900 pg/mL
same,TNF,"[1]; LTA 1.25 μg/ml, hBD2 10 μg/ml, Table 1",494.7 pg/mL
same,TNF,"[1]; LTA 1.25 μg/ml, hBD2 10 μg/ml, Table 11",2330 pg/mL
same,TNF,"[1]; LTA 1.25 μg/ml, hBD2 100 μg/ml, Table 1",375.2 pg/mL
same,TNF,"[1]; LTA 1.25 μg/ml, hBD2 100 μg/ml, Table 11",1150 pg/mL
same,TNF,"[1]; LTA 1.25 μg/ml, hBD2 1000 μg/ml, Table 11",110 pg/mL
same,TNF,"[1]; Medium, hBD2 1 μg/ml, Table 1",4.2 pg/mL
same,TNF,"[1]; Medium, hBD2 1 μg/ml, Table 9",3.4 pg/mL
same,TNF,"[1]; Medium, hBD2 1 μg/ml, Table 11",0 pg/mL
same,TNF,"[1]; Medium, hBD2 10 μg/ml, Table 1",2.6 pg/mL
same,TNF,"[1]; Medium, hBD2 10 μg/ml, Table 9",3.7 pg/mL
same,TNF,"[1]; Medium, hBD2 10 μg/ml, Table 11",0 pg/mL
same,TNF,"[1]; Medium, hBD2 100 μg/ml, Table 1",2.9 pg/mL
same,TNF,"[1]; Medium, hBD2 100 μg/ml, Table 9",3.6 pg/mL
same,TNF,"[1]; Medium, hBD2 100 μg/ml, Table 11",0 pg/mL
same,TNF,"[1]; Medium, hBD2 1000 μg/ml, Table 11",0 pg/mL
same,TNF,"[1]; Medium, test compound 1 μg/ml, Table 16",0 pg/mL
same,TNF,"[1]; Medium, test compound 10 μg/ml, Table 16",0 pg/mL
same,TNF,"[1]; Medium, test compound 40 μg/ml, Table 16",0 pg/mL
same,TNF,"[1]; Medium, treatment 1 μg/ml, Table 21",3 pg/mL
same,TNF,"[1]; Medium, treatment 10 μg/ml, Table 21",2 pg/mL
same,TNF,"[1]; Medium, treatment 100 μg/ml, Table 21",2 pg/mL
same,TNF,"[1]; PBMC stimulated with Pam3CSK4 (TLR2-TLR1 ligand), results not shown",able to downregulate TNF
same,TNF,"[1]; PGN 40 μg/ml, hBD2 1 μg/ml, Table 9",809.9 pg/mL
same,TNF,"[1]; PGN 40 μg/ml, hBD2 10 μg/ml, Table 9",362.0 pg/mL
same,TNF,"[1]; PGN 40 μg/ml, hBD2 100 μg/ml, Table 9",274.9 pg/mL
same,"Mean total arthritis score, peak","[2]; 0.1 mg/kg i.v. once daily from day 14 (Group E), study day 40",9.0±0.77
same,"Mean total arthritis score, peak","[2]; 1 mg/kg i.v. once daily from day 14 (Group D), study day 41",5.2±1.11
same,"Mean total arthritis score, peak","[2]; 10 mg/kg i.v. once daily from day 14 (Group C), study day 40",5.0±1.04
same,Mean Arthritic Score,"[2]; Group C, 10 mg/kg IV once daily, Study Day 0",0.0
same,Mean Arthritic Score,"[2]; Group C, 10 mg/kg IV once daily, Study Day 14",1.7
same,Mean Arthritic Score,"[2]; Group C, 10 mg/kg IV once daily, Study Day 21",3.1
same,Mean Arthritic Score,"[2]; Group C, 10 mg/kg IV once daily, Study Day 22",4.3
same,Mean Arthritic Score,"[2]; Group C, 10 mg/kg IV once daily, Study Day 23",3.3
same,Mean Arthritic Score,"[2]; Group C, 10 mg/kg IV once daily, Study Day 26",4.1
same,Mean Arthritic Score,"[2]; Group C, 10 mg/kg IV once daily, Study Day 27",4.1
same,Mean Arthritic Score,"[2]; Group C, 10 mg/kg IV once daily, Study Day 28",4.1
same,Mean Arthritic Score,"[2]; Group C, 10 mg/kg IV once daily, Study Day 29",4.4
same,Mean Arthritic Score,"[2]; Group C, 10 mg/kg IV once daily, Study Day 30",4.9
same,Mean Arthritic Score,"[2]; Group C, 10 mg/kg IV once daily, Study Day 33",4.8
same,Mean Arthritic Score,"[2]; Group C, 10 mg/kg IV once daily, Study Day 34",4.9
same,Mean Arthritic Score,"[2]; Group C, 10 mg/kg IV once daily, Study Day 35",4.9
same,Mean Arthritic Score,"[2]; Group C, 10 mg/kg IV once daily, Study Day 36",4.8
same,Mean Arthritic Score,"[2]; Group C, 10 mg/kg IV once daily, Study Day 37",4.7
same,Mean Arthritic Score,"[2]; Group C, 10 mg/kg IV once daily, Study Day 40",5.0
same,Mean Arthritic Score,"[2]; Group C, 10 mg/kg IV once daily, Study Day 41",4.8*
same,Mean Arthritic Score,"[2]; Group D, 1 mg/kg IV once daily, Study Day 0",0.0
same,Mean Arthritic Score,"[2]; Group D, 1 mg/kg IV once daily, Study Day 14",0.6
same,Mean Arthritic Score,"[2]; Group D, 1 mg/kg IV once daily, Study Day 21",2.1
same,Mean Arthritic Score,"[2]; Group D, 1 mg/kg IV once daily, Study Day 22",2.3
same,Mean Arthritic Score,"[2]; Group D, 1 mg/kg IV once daily, Study Day 23",2.0
same,Mean Arthritic Score,"[2]; Group D, 1 mg/kg IV once daily, Study Day 26",2.0
same,Mean Arthritic Score,"[2]; Group D, 1 mg/kg IV once daily, Study Day 27",2.0
same,Mean Arthritic Score,"[2]; Group D, 1 mg/kg IV once daily, Study Day 28",2.3
same,Mean Arthritic Score,"[2]; Group D, 1 mg/kg IV once daily, Study Day 29",2.4
same,Mean Arthritic Score,"[2]; Group D, 1 mg/kg IV once daily, Study Day 30",2.7
same,Mean Arthritic Score,"[2]; Group D, 1 mg/kg IV once daily, Study Day 33",4.0
same,Mean Arthritic Score,"[2]; Group D, 1 mg/kg IV once daily, Study Day 34",4.1
same,Mean Arthritic Score,"[2]; Group D, 1 mg/kg IV once daily, Study Day 35",4.0
same,Mean Arthritic Score,"[2]; Group D, 1 mg/kg IV once daily, Study Day 36",4.1
same,Mean Arthritic Score,"[2]; Group D, 1 mg/kg IV once daily, Study Day 37",4.2
same,Mean Arthritic Score,"[2]; Group D, 1 mg/kg IV once daily, Study Day 40",4.7*
same,Mean Arthritic Score,"[2]; Group D, 1 mg/kg IV once daily, Study Day 41",5.2
same,Mean Arthritic Score,"[2]; Group E, 0.1 mg/kg IV once daily, Study Day 0",0.0
same,Mean Arthritic Score,"[2]; Group E, 0.1 mg/kg IV once daily, Study Day 14",1.2
same,Mean Arthritic Score,"[2]; Group E, 0.1 mg/kg IV once daily, Study Day 21",3.2
same,Mean Arthritic Score,"[2]; Group E, 0.1 mg/kg IV once daily, Study Day 22",3.6
same,Mean Arthritic Score,"[2]; Group E, 0.1 mg/kg IV once daily, Study Day 23",3.2
same,Mean Arthritic Score,"[2]; Group E, 0.1 mg/kg IV once daily, Study Day 26",3.7
same,Mean Arthritic Score,"[2]; Group E, 0.1 mg/kg IV once daily, Study Day 27",4.1
same,Mean Arthritic Score,"[2]; Group E, 0.1 mg/kg IV once daily, Study Day 28",4.4
same,Mean Arthritic Score,"[2]; Group E, 0.1 mg/kg IV once daily, Study Day 29",5.0
same,Mean Arthritic Score,"[2]; Group E, 0.1 mg/kg IV once daily, Study Day 30",5.9
same,Mean Arthritic Score,"[2]; Group E, 0.1 mg/kg IV once daily, Study Day 33",7.3
same,Mean Arthritic Score,"[2]; Group E, 0.1 mg/kg IV once daily, Study Day 34",7.8
same,Mean Arthritic Score,"[2]; Group E, 0.1 mg/kg IV once daily, Study Day 35",8.0
same,Mean Arthritic Score,"[2]; Group E, 0.1 mg/kg IV once daily, Study Day 36",8.2
same,Mean Arthritic Score,"[2]; Group E, 0.1 mg/kg IV once daily, Study Day 37",8.7
same,Mean Arthritic Score,"[2]; Group E, 0.1 mg/kg IV once daily, Study Day 40",9.0
same,Mean Arthritic Score,"[2]; Group E, 0.1 mg/kg IV once daily, Study Day 41",8.8
